# Experimental data from ChEMBL document CHEMBL1949642 (Bioorg Med Chem Lett, 2012).
# pIC50: −log10 of the molar value.
# Experiments:
# [1] = molecular target: C-C chemokine receptor type 5 (Homo sapiens, UniProt P51681); assay: Displacement of [125I]MIP-1alpha from human recombinant CCR5 expressed in CHO cells; format: cell-based
# [2] = Lipophilicity, log D of the compound at pH 7.4; details: buffer
# [3] = Intrinsic clearance in human liver microsomes
# [4] = molecular target: Voltage-gated inwardly rectifying potassium channel KCNH2 (Homo sapiens, UniProt Q12809); assay: Displacement of 3,7-Bis[2-(4-nitro[3,5-3H]phenyl)ethyl]-3,7-diazabicyclo[3.3.1]nonane from human ERG expressed in HEK cells after 3 hrs
# Sequence of Voltage-gated inwardly rectifying potassium channel KCNH2 (Q12809 whole entry): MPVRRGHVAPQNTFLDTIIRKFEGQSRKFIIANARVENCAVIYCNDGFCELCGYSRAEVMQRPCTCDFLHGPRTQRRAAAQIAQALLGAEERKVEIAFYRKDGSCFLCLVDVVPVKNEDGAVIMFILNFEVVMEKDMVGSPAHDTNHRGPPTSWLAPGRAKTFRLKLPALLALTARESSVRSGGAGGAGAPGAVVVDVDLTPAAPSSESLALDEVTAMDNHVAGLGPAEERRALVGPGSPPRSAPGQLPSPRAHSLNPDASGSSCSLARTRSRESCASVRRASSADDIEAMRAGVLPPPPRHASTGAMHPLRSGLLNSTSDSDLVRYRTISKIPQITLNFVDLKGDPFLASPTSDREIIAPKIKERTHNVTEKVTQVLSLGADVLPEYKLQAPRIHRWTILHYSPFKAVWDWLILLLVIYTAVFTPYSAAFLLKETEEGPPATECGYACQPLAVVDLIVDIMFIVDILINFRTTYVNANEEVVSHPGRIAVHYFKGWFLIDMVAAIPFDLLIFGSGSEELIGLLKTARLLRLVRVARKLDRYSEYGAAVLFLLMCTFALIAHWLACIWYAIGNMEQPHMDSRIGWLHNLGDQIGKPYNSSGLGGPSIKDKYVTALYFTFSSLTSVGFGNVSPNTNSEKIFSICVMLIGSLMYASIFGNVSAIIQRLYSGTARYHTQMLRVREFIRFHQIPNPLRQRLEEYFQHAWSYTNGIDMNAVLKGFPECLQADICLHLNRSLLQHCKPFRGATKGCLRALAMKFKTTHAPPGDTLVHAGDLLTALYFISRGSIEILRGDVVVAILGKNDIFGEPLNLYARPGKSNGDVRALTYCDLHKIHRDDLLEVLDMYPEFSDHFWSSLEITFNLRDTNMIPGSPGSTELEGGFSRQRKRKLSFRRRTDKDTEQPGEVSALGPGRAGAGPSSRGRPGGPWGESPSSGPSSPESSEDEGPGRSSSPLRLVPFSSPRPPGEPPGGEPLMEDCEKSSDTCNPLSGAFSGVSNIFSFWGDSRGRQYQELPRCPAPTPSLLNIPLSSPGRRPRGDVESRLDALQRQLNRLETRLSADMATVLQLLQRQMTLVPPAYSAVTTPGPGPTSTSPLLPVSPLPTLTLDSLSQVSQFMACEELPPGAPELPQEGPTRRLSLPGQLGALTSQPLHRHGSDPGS
# [5] = Oral bioavailability in rat at 2 to 5 mg/kg; format: ADME, organism-based; details: in vivo
# [6] = Volume of distribution at steady state in male dog at 1 to 2 mg/kg, iv; format: ADME, organism-based, Canis lupus familiaris; design: dose 1-2 mg/kg, route intravenous; details: in vivo, read-out: Vdss
# [7] = Clearance in male dog at 1 to 2 mg/kg, iv; format: ADME, organism-based, Canis lupus familiaris; design: dose 1-2 mg/kg, route intravenous; details: in vivo
# [8] = Volume of distribution at steady state in rat at 1 to 2 mg/kg, iv; format: ADME, organism-based; design: dose 1-2 mg/kg, route intravenous; details: in vivo, read-out: Vdss
# [9] = Volume of distribution at steady state in female dog at 1 to 2 mg/kg, iv; format: ADME, organism-based, Canis lupus familiaris; design: dose 1-2 mg/kg, route intravenous; details: in vivo, read-out: Vdss
# [10] = Clearance in female dog at 1 to 2 mg/kg, iv; format: ADME, organism-based, Canis lupus familiaris; design: dose 1-2 mg/kg, route intravenous; details: in vivo
# [11] = Half life in male dog at 1 to 2 mg/kg, iv; format: ADME, organism-based, Canis lupus familiaris; design: dose 1-2 mg/kg, route intravenous; details: in vivo
# [12] = Oral bioavailability in male dog at 2 to 5 mg/kg; format: ADME, organism-based, Canis lupus familiaris; details: in vivo
# [13] = Half life in female dog at 1 to 2 mg/kg, iv; format: ADME, organism-based, Canis lupus familiaris; design: dose 1-2 mg/kg, route intravenous; details: in vivo
# [14] = Half life in rat at 1 to 2 mg/kg, iv; format: ADME, organism-based; design: dose 1-2 mg/kg, route intravenous; details: in vivo
# [15] = Clearance in rat at 1 to 2 mg/kg, iv; format: ADME, organism-based; design: dose 1-2 mg/kg, route intravenous; details: in vivo
# [16] = Oral bioavailability in female dog at 2 to 5 mg/kg; format: ADME, organism-based, Canis lupus familiaris; details: in vivo
# Sequence of C-C chemokine receptor type 5 (P51681 whole entry): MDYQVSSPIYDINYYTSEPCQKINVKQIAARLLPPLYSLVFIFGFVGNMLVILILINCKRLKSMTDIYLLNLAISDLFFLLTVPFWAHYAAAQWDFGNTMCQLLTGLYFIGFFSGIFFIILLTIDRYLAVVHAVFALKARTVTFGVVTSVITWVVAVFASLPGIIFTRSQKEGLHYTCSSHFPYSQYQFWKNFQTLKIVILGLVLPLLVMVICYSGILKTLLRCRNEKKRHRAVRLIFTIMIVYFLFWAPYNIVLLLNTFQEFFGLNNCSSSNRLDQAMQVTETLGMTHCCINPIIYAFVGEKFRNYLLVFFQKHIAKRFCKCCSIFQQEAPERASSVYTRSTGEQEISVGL
Structure (SMILES),pIC50 [1],logD [2],microsomal CLint ([3]; liver microsomes),pIC50 [4],other results
CCN(C(=O)Cc1ccc(S(C)(=O)=O)cc1)C1CCN(CCC(c2ccccc2)C2CCN(S(=O)(=O)CC(F)(F)F)CC2)CC1 (stereo not given),8.27,2.2,28 µL/min/mg,–,–
CCN(C(=O)Cc1ccc(S(C)(=O)=O)cc1)C1CCN(CC[C@@H](c2ccccc2)N2CCN(S(=O)(=O)C(F)(F)F)CC2)CC1,8.80,–,33 µL/min/mg,5.49,–
CCN(C(=O)Cc1ccc(S(C)(=O)=O)cc1)C1CCN(CC[C@@H](c2ccccc2)N2CCN(S(=O)(=O)CC(F)(F)F)CC2)CC1,8.05,1.8,47 µL/min/mg,5.24,–
CCN(C(=O)Cc1ccc(S(C)(=O)=O)cc1)C1CCN(CC[C@@H](c2ccccc2)C2CCN(S(C)(=O)=O)CC2)CC1,8.96,1.1,31 µL/min/mg,4.60,–
CCN(C(=O)Cc1ccc(S(C)(=O)=O)cc1)C1CCN(CC[C@@H](c2ccccc2)C2CCN(S(=O)(=O)C(F)(F)F)CC2)CC1,> 10.00,3.4,28 µL/min/mg,5.92,–
CCN(C(=O)Cc1ccc(S(C)(=O)=O)cc1)C1CCN(CC[C@@H](c2cc(F)cc(F)c2)N2CCN(S(C)(=O)=O)CC2)CC1,8.43,1.2,–,< 4.49,bioavailability [5]: 7.3%; Vd [6]: 3.2 L/kg; clearance [7]: 12 mL/min/kg; Vd [8]: 7.7 L/kg; Vd [9]: 2.2 L/kg; clearance [10]: 7.5 mL/min/kg; half-life [11]: 8.3 h; microsomal CLint ([3]; microsomes): 8 µL/min/mg; bioavailability [12]: 15%; half-life [13]: 4.7 h; half-life [14]: 2.4 h; clearance [15]: 71 mL/min/kg; bioavailability [16]: 22%
CCN(C(=O)Cc1ccc(S(C)(=O)=O)cc1)C1CCN(CC[C@@H](c2cccc(S(C)(=O)=O)c2)C2CCN(S(C)(=O)=O)CC2)CC1,6.10,0.6,–,–,–
CCN(C(=O)Cc1ccc(S(C)(=O)=O)cc1)C1CCN(CC[C@@H](c2cccc(OC)c2)C2CCN(S(C)(=O)=O)CC2)CC1,8.30,1.2,45 µL/min/mg,4.49,–
CCN(C(=O)Cc1ccc(S(C)(=O)=O)cc1)C1CCN(CC[C@@H](c2cccc(F)c2)C2CCN(S(C)(=O)=O)CC2)CC1,–,–,18 µL/min/mg,–,–
CCN(C(=O)Cc1ccc(S(C)(=O)=O)cc1)C1CCN(CC[C@@H](c2cccc(C)c2)C2CCN(S(C)(=O)=O)CC2)CC1,9.36,1.5,104 µL/min/mg,–,–
CCN(C(=O)Cc1ccc(S(C)(=O)=O)cc1)C1CCN(CC[C@@H](c2cc(F)cc(Cl)c2)C2CCN(S(C)(=O)=O)CC2)CC1,–,1.6,22 µL/min/mg,–,–
CCN(C(=O)Cc1ccc(S(C)(=O)=O)cc1)C1CCN(CC[C@@H](c2cc(C)cc(C)c2)C2CCN(S(C)(=O)=O)CC2)CC1,> 10.00,1.9,> 150 µL/min/mg,–,–
CCN(C(=O)Cc1ccc(S(C)(=O)=O)cc1)C1CCN(CC[C@@H](c2cccc(Cl)c2)C2CCN(S(C)(=O)=O)CC2)CC1,9.26,1.8,32 µL/min/mg,5.10,–
CCN(C(=O)Cc1ccc(S(C)(=O)=O)cc1)C1CCN(CC[C@@H](c2cccc(C(F)(F)F)c2)C2CCN(S(C)(=O)=O)CC2)CC1,8.46,1.9,17 µL/min/mg,5.10,–
CCN(C(=O)Cc1ccc(S(C)(=O)=O)cc1)C1CCN(CC[C@@H](c2cc(Cl)cc(Cl)c2)C2CCN(S(C)(=O)=O)CC2)CC1,> 10.00,2.6,–,5.19,–
